Test results reported in US10076533B2, “Acyclic nucleoside phosphonate diesters” (The Regents of the University of California, priority 2013, dated 2018).
Like-named read-outs stand apart in the source and are kept apart here.

Legend:
[1] = Cytotoxicity in MT-2 cells, flow cytometry cell counts and viability; assay type: cell-based, human; settings: human; MT-2 cells, 72 hrs
Procedure: (§1) MT-2 cells were incubated with drug for 72 hrs and harvested. Flow count beads (Beckman Coulter, Miami, Fla.) were added to the cell suspension followed by propidium iodide staining and analysis using flow cytometer and the 50% cytotoxic concentration (CC50) was calculated from the cell counts and viability.

[2] = Effect of oral compounds on body weight in Balb-c mice; assay type: in vivo
Procedure: Compounds were administered at the indicated doses by oral gavage daily for 5 days. Weights measured before and on day 6 after 5 doses.

[3] = system: Copenhagen strain of vaccinia virus; test: microbe, parasite or virus in culture; assay type: cell-based
HPV-11 = HPV-11 origin replication in HEK 293 cells, qPCR; assay type: cell-based; settings: for EC50: HPV-11 origin replication in HEK 293 cells, 48 hr, qPCR
Procedure: (§2) An origin-containing plasmid was co-transfected with HPV-11 E1 and E2 protein expression vectors into HEK 293 cells. At 4 hr post-transfection, cells were treated with compound dilutions and the cells were incubated for 48 hr. Replication of the virus origin was detected with DpnI and exonuclease III to remove unreplicated input bacterial plasmid DNA. Remaining replicated DNA was quantified by qPCR. Toxicity was determined by trypan blue exclusion.

[4] = Toxicity in HEK 293 cells by trypan blue exclusion (HPV-11 example); assay type: cell-based; settings: human
Procedure: as §2

HPV-16 = HPV-16 origin replication in HEK 293 cells, qPCR; assay type: cell-based
Procedure: as §2, with “HPV-16” for “HPV-11”

[5] = Toxicity in HEK 293 cells by trypan blue exclusion (HPV-16 example); assay type: cell-based; settings: human
Procedure: as §2, with “HPV-16” for “HPV-11”

in vitro = settings: human
[6] = Viability of PBMC by XTT reduction; settings: human, PHA-stimulated human PBMCs
HIV-1LAI = test: HIV antiviral assay in MT-2 cells, p24 reduction; settings: for Selectivity Index: CC50/EC50, MT-2 cells
[7] = Cytotoxicity in 2.2.15 cells by neutral red uptake; settings: human
[8] = Cytotoxicity in HFF cells in parallel to HSV-2 assay; settings: human, […]
[9] = Cytotoxicity in HFF cells in parallel to HSV-1 assay; settings: human, […]
[10] = African green monkey, uninfected COS7 cells
Hepatitis B virus = test: HBV replication in 2.2.15 cells, HBV DNA blot hybridization
[11] = Cytotoxicity in HFF cells in parallel to cytomegalovirus assay; settings: human, […]
MAD-1 strain of JC virus = test: Antiviral effect in JC virus (MAD-1) infected COS7 cells, qPCR
[12] = Antiproliferative activity, neutral red, normal human fibroblasts; settings: normal human fibroblasts (HFF), monolayer culture
[13] = Toxicity in primary human keratinocyte raft cultures by histology
Hela (HPV-18) = test: Antiproliferative activity, neutral red, Hela cervical cancer cells; settings: Homo sapiens, 96 h, read-out: Cytotoxic concentration 50% (CC50) Hela (HPV-18)
Caski (HPV-16) = test: Antiproliferative activity, neutral red, Caski cervical cancer cells
[14] = human
HIV-192US727 = test: Anti-HIV assay in human PBMC, supernatant reverse transcriptase activity
[15] = system: AD169 strain of human cytomegalovirus; test: Antiviral effect in HFF cells infected with human cytomegalovirus (AD169)
HPV-18 = test: Antiviral effect in HPV-18 infected primary human keratinocyte rafts, qPCR
[16] = system: BK virus (Gardner strain); test: Antiviral effect in HFF cells infected with BK virus (Gardner strain), qPCR
MT-2 cells = test: Cytotoxicity in MT-2 cells, flow cytometry cell counts and viability; assay type: cell-based, human; settings: MT-2 cells, 72 hrs; read-out: CC50
Procedure: as §1

HEK 293 cells = test: Toxicity in HEK 293 cells by trypan blue exclusion (HPV-11 example); assay type: cell-based
Procedure: as §2

[17] = system: human foreskin fibroblast (HFF) cells
[18] = system: Human peripheral blood monocyte (PBMC); test: Viability of PBMC by XTT reduction; settings: human PBMC, XTT reduction
[19] = system: human foreskin fibroblast (HFF) cells; test: Cytotoxicity in HFF cells in parallel to HSV-2 assay; settings: HFF cells
[20] = system: human foreskin fibroblast (HFF) cells; test: Cytotoxicity in HFF cells in parallel to HSV-1 assay; settings: HFF cells, in parallel to HSV-1 assay
COS7 cells = settings: uninfected COS7 cells, […]
[21] = system: human foreskin fibroblast (HFF) cells; test: Cytotoxicity in HFF cells in parallel to cytomegalovirus assay; settings: HFF cells, in parallel to cytomegalovirus assay
[22] = system: human foreskin fibroblast (HFF) cells; settings: uninfected HFF cells, […]

**Q.** Which results are given for `CCCCCCCCCCCCCCCCCCOCCOP(=O)(CO[C@H](CO)Cn1ccc(N)nc1=O)OCc1ccccc1` (stereo partly drawn) [Compound 219, benzyl octadecyloxyethyl 1-(S)-[(3-hydroxy-2-phosphonomethoxy)propyl]cytosine]?
**A.** CC50 at 72 h [1]: 18 ± 3.6 µM; body weight Day 6 ([2]; 20 mg/kg/day oral gavage daily for 5 days): 19.27 ± 1.32 (6); body weight Day 0 ([2]; 20 mg/kg/day oral gavage, before dosing): 19.03 ± 1.16 (6); EC50 ([3]; Orthopoxvirus vaccinia, HFF, 168 h): 0.09 µM; Selectivity Index ([3]; vaccinia virus (Copenhagen), HFF cells): >1110; EC50 (HPV-11; HEK293): 2.04 µM; Selectivity Index (HPV-11; HPV-11, HEK 293 cells): >4.9; CC50 at 48 h [4]: > 10 µM; EC50 (HPV-16; HEK293, HPV-16 origin replication in HEK 293 cells, 48 hr, qPCR, read-out: EC50): 2.23 µM; Selectivity Index (HPV-16; HPV-16, HEK 293 cells): >4.48; CC50 at 48 h [5]: > 10 µM; CC50 (in vitro): > 100 µM; CC50 at 7 days [6]: 2.87 µM; Selectivity Index (HIV-1LAI): 6.7; EC50 (HIV-1LAI; Human immunodeficiency virus 1, MT2, 96 h): 2.7 ± 2.1 µM; CC50 at 7 days [7]: > 100 µM; CC50 at 3 days [8]: 13.1 µM; CC50 at 3 days [9]: 19.3 µM; CC50 at 7 days [10]: 12.8 µM; EC50 (Hepatitis B virus; Hepatitis B virus, 168 h): 0.45 µM; Selectivity Index (Hepatitis B virus; hepatitis B virus, 2.2.15 cells): >223; CC50 at 14 days [11]: 84.2 µM; EC50 (MAD-1 strain of JC virus; JC polyomavirus, COS-7, 168 h): > 4 µM; Selectivity Index (MAD-1 strain of JC virus; JC virus (MAD-1), COS7 cells): <3.2; CC50 at 4 days [12]: 52 µM; CC50 [13]: > 10 µM; CC50 (Hela (HPV-18)): 2.2 µM; CC50 (Caski (HPV-16); Homo sapiens, Ca-Ski, 96 h, read-out: Cytotoxic concentration 50% (CC50) Caski (HPV-16)): 2 µM; fold more effective in reducing viable cell number in the cervical cancer lines than in normal, non-transformed human fibroblasts (Caski (HPV-16); cervical cancer lines (Caski, Hela) vs HFF): 23.6 fold; CC50 at 14 days [14]: 6.54 µM; Selectivity Index (HIV-192US727; HIV-192US727, human PBMC): >28.7; EC50 (HIV-192US727; Human immunodeficiency virus 1, PBMC, 168 h): < 0.1 µM; EC50 ([15]; Human betaherpesvirus 5, AD169, HFF, 336 h): < 0.03 µM; Selectivity Index ([15]; human cytomegalovirus (AD169), HFF cells): >2807; Selectivity Index (HPV-18; HPV-18 keratinocyte rafts): >9.4; EC50 (HPV-18; Homo sapiens, Keratinocyte): 1.06 µM; Selectivity Index ([16]; BK virus (Gardner strain), HFF cells): >218; EC50 ([16]; Betapolyomavirus hominis, HFF, 336 h): < 0.03 µM

**Q.** Which CC50 (MT-2 cells) does the source give for `CCCCCCCCCCCCCCCCCCOC[C@H](COP(=O)(CO[C@H](CO)Cn1ccc(N)nc1=O)OCc1ccccc1)OCc1ccccc1` (stereo partly drawn) [Compound 231, benzyl 1-O-octadecyl-2-O-benzyl-sn-glyceryl 1-(S)-[3-hydroxy-2-(phosphonomethoxy)propyl]cytosine] here?
**A.** 22 ± 3 µM

**Q.** What about the EC50 ([3]; HFF cells infected with vaccinia virus (Copenhagen), 7 days, crystal violet, read-out: EC50) of the same compound?
**A.** 0.23 µM

**Q.** What about the EC50 (HPV-11) of the same compound?
**A.** 1.56 µM

**Q.** What about the CC50 (HEK 293 cells) of the same compound?
**A.** > 10 µM

**Q.** And the CC50 [17]?
**A.** > 100 µM

**Q.** And the CC50 [18]?
**A.** 19 µM

**Q.** What about the “Selectivity Index” value (HIV-1LAI) of the same compound?
**A.** 10

**Q.** And the EC50 (HIV-1LAI; HIV-1 infected MT-2 cells, p24 reduction, four days)?
**A.** 2.2 ± 2.1 µM

**Q.** And the CC50 [19]?
**A.** 34.8 µM

**Q.** What about the CC50 [20] of the same compound?
**A.** 88.3 µM

**Q.** And the CC50 (COS7 cells)?
**A.** 62.6 µM

**Q.** And the CC50 [21]?
**A.** 19 µM

**Q.** And the EC50 (MAD-1 strain of JC virus; COS7 cells infected with JC virus (MAD-1), 7 days, qPCR)?
**A.** > 20 µM

**Q.** And the CC50 [22]?
**A.** 13.3 µM

**Q.** What about the EC50 (HIV-192US727; HIV-192US727 infected human PBMC, 7 days, supernatant reverse transcriptase activity) of the same compound?
**A.** < 0.3 µM

**Q.** And the EC50 ([15]; HFF cells infected with human cytomegalovirus (AD169), 14 days, crystal violet)?
**A.** < 0.03 µM

**Q.** What about the EC50 ([16]; HFF cells infected with BK virus (Gardner strain), 14 days, qPCR) of the same compound?
**A.** < 0.03 µM
